Experimental data from patent US20250368649A1, “TETRAHYDROPYRIDOPYRIMIDINE PAN-KRAS INHIBITORS” (Mirati Therapeutics, Inc., priority 2022, published 2025).

Experiments:
[1] = molecular target: KRas WT (Homo sapiens, UniProt P01116); test: KRas binding assay (TR-FRET displacement), KRas WT; conditions: TR-FRET displacement
[2] = molecular target: KRas G12A (Homo sapiens, UniProt P01116, G12A); format: binding; conditions: TR-FRET displacement, read-out: Binding to KRas (IC50 nM) G12A
[3] = molecular target: KRas G12C (Homo sapiens, UniProt P01116, G12C); format: binding; conditions: TR-FRET displacement, read-out: Binding to KRas (IC50 nM) G12C
[4] = molecular target: KRas G12S (Homo sapiens, UniProt P01116, G12S); format: binding; conditions: TR-FRET displacement, read-out: Binding to KRas (IC50 nM) G12S
[5] = molecular target: KRas G13D (Homo sapiens, UniProt P01116, G13D); format: binding; conditions: TR-FRET displacement, read-out: Binding to KRas (IC50 nM) G13D
[6] = molecular target: KRas Q61H (Homo sapiens, UniProt P01116, Q61H); test: KRas binding assay (TR-FRET displacement), KRas Q61H; conditions: TR-FRET displacement
[7] = molecular target: KRas G12D (Homo sapiens, UniProt P01116, G12D); test: biochemical; conditions: Binding to KRas (IC50 nM) G12D, TR-FRET displacement, KRas G12D
[8] = molecular target: KRas G12V (Homo sapiens, UniProt P01116, G12V); test: biochemical; conditions: Binding to KRas (IC50 nM) G12V, TR-FRET displacement, KRas G12V
Sequence of KRas G12V (P01116 1-169 isoform P01116-2 G12V): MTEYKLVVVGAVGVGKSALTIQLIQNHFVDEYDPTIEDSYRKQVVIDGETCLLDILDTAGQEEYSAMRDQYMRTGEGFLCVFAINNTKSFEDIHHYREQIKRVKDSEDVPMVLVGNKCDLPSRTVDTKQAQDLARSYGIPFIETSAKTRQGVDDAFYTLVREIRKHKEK

Sequence of KRas Q61H (P01116 1-169 isoform P01116-2 Q61H): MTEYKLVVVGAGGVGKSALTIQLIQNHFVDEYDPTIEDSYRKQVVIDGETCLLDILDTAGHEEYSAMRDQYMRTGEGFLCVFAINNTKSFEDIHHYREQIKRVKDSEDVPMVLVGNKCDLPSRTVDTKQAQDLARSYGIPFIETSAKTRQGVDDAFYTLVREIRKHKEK
Sequence of KRas G12A (P01116 1-169 isoform P01116-2 G12A): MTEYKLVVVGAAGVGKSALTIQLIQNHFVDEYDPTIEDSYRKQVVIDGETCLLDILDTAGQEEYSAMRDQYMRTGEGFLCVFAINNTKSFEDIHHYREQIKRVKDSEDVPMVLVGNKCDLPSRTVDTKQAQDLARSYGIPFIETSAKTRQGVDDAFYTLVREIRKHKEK
Sequence of KRas G12D (P01116 1-169 isoform P01116-2 G12D): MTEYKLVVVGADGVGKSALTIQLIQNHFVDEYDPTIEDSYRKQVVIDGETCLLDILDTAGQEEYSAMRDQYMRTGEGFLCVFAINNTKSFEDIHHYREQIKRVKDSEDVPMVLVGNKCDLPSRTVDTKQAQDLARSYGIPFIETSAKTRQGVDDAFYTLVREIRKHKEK
Sequence of KRas G12C (P01116 1-169 isoform P01116-2 G12C): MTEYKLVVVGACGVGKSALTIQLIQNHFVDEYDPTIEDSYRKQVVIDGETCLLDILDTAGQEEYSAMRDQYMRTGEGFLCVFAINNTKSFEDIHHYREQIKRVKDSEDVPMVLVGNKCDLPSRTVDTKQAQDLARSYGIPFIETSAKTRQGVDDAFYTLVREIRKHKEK
Sequence of KRas WT (P01116 1-169 isoform P01116-2): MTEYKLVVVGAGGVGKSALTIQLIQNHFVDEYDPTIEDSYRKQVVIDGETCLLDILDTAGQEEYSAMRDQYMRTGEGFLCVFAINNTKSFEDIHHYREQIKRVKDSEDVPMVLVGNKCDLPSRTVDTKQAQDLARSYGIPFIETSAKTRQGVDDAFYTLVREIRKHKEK
Sequence of KRas G13D (P01116 1-169 isoform P01116-2 G13D): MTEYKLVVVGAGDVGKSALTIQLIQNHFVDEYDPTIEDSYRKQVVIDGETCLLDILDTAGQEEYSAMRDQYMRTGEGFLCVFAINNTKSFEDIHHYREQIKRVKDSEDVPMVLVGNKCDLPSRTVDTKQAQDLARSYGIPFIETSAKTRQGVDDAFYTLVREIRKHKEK
Sequence of KRas G12S (P01116 1-169 isoform P01116-2 G12S): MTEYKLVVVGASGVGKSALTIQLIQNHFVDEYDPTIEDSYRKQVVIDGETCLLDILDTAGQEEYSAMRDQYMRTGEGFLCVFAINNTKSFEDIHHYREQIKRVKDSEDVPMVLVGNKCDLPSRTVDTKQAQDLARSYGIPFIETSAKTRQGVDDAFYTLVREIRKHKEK

Compound	IC50 [1]	IC50 [2]	IC50 [3]	IC50 [4]	IC50 [5]	IC50 [6]	IC50 [7]	IC50 [8]
CCc1cccc2cccc(N3CCc4c(nc(OCC5(CN(C)C)CC5)nc4NC4CC(n5ccnn5)C4)C3)c12 (stereo not drawn) [Example 703, N-(3-(1H-1,2,3-triazol-1-yl)cyclobutyl)-2-((1-((dimethylamino)methyl)cyclopropyl)methoxy)-7-(8-ethylnaphthalen-1-yl)-5,6,7,8-tetrahydropyrido[3,4-d]pyrimidin-4-amine]	12400 nM	13500 nM	9490 nM	13500 nM	16100 nM	15900 nM	10700 nM	4790 nM
CCc1cccc2cccc(N3CCc4c(nc(OCC5(CN(C)C)CC5)nc4N(C)Cc4nnnn4C)C3)c12 [Example 537, 2-((1-((dimethylamino)methyl)cyclopropyl)methoxy)-7-(8-ethylnaphthalen-1-yl)-N-methyl-N-((1-methyl-1H-tetrazol-5-yl)methyl)-5,6,7,8-tetrahydropyrido[3,4-d]pyrimidin-4-amine]	26700 nM	43500 nM	3700 nM	5660 nM	> 100000 nM	> 100000 nM	8520 nM	3180 nM
CCc1cccc2cccc(N3CCc4c(nc(OCC5(CN(C)C)CC5)nc4NC4CN(C(=O)NC)C4)C3)c12 [Example 676, 3-((2-((1-((dimethylamino)methyl)cyclopropyl)methoxy)-7-(8-ethylnaphthalen-1-yl)-5,6,7,8-tetrahydropyrido[3,4-d]pyrimidin-4-yl)amino)-N-methylazetidine-1-carboxamide]	5010 nM	6300 nM	3410 nM	7090 nM	6220 nM	6700 nM	4290 nM	1910 nM
CCc1cccc2cccc(N3CCc4c(nc(OCC5(CN(C)C)CC5)nc4NCc4nc(-c5ccncc5)no4)C3)c12 [Example 530, 2-((1-((dimethylamino)methyl)cyclopropyl)methoxy)-7-(8-ethylnaphthalen-1-yl)-N-((3-(pyridin-4-yl)-1,2,4-oxadiazol-5-yl)methyl)-5,6,7,8-tetrahydropyrido[3,4-d]pyrimidin-4-amine]	2660 nM	1920 nM	1030 nM	1070 nM	3470 nM	3080 nM	6680 nM	7530 nM
CCc1cccc2cccc(N3CCc4c(nc(OCC5(CN(C)C)CC5)nc4NCCc4nnc5n4CCC5)C3)c12 [Example 570, N-(2-(6,7-dihydro-5H-pyrrolo[2,1-c][1,2,4]triazol-3-yl)ethyl)-2-((1-((dimethylamino)methyl)cyclopropyl)methoxy)-7-(8-ethylnaphthalen-1-yl)-5,6,7,8-tetrahydropyrido[3,4-d]pyrimidin-4-amine]	99 nM	134 nM	74 nM	58 nM	72 nM	37 nM	39000 nM	13700 nM
CCc1cccc2cccc(N3CCc4c(nc(OCC5(CN(C)C)CC5)nc4NCc4cc(C5CC5)nn4C)C3)c12 [Example 567, N-((3-cyclopropyl-1-methyl-1H-pyrazol-5-yl)methyl)-2-((1-((dimethylamino)methyl)cyclopropyl)methoxy)-7-(8-ethylnaphthalen-1-yl)-5,6,7,8-tetrahydropyrido[3,4-d]pyrimidin-4-amine]	11600 nM	6050 nM	3470 nM	4330 nM	11800 nM	9550 nM	37600 nM	5760 nM
CCc1cccc2cccc(N3CCc4c(nc(OCC5(CN(C)C)CC5)nc4NCCc4ncc(F)cc4F)C3)c12 [Example 568, N-(2-(3,5-difluoropyridin-2-yl)ethyl)-2-((1-((dimethylamino)methyl)cyclopropyl)methoxy)-7-(8-ethylnaphthalen-1-yl)-5,6,7,8-tetrahydropyrido[3,4-d]pyrimidin-4-amine]	15700 nM	13400 nM	7900 nM	13600 nM	19800 nM	15300 nM	39100 nM	5210 nM
CCc1cccc2cccc(N3CCc4c(nc(OCC5(CN(C)C)CC5)nc4N4CCCOC(CCO)C4)C3)c12 (stereo not drawn) [Example 515, 2-(4-(2-((1-((dimethylamino)methyl)cyclopropyl)methoxy)-7-(8-ethylnaphthalen-1-yl)-5,6,7,8-tetrahydropyrido[3,4-d]pyrimidin-4-yl)-1,4-oxazepan-2-yl)ethan-1-ol]	622 nM	656 nM	373 nM	725 nM	988 nM	877 nM	298 nM	346 nM
CCc1cccc2cccc(N3CCc4c(nc(OCC5(CN(C)C)CC5)nc4NCc4c(C)nnn4CC)C3)c12 [Example 518, 2-((1-((dimethylamino)methyl)cyclopropyl)methoxy)-N-((1-ethyl-4-methyl-1H-1,2,3-triazol-5-yl)methyl)-7-(8-ethylnaphthalen-1-yl)-5,6,7,8-tetrahydropyrido[3,4-d]pyrimidin-4-amine]	221 nM	175 nM	139 nM	161 nM	249 nM	190 nM	1930 nM	1790 nM
CCc1cccc2cccc(N3CCc4c(nc(OCC5(CN(C)C)CC5)nc4N4CCN(C(=O)c5c[nH]c(=O)[nH]5)CC4)C3)c12 [Example 536, 4-(4-(2-((1-((dimethylamino)methyl)cyclopropyl)methoxy)-7-(8-ethylnaphthalen-1-yl)-5,6,7,8-tetrahydropyrido[3,4-d]pyrimidin-4-yl)piperazine-1-carbonyl)-1,3-dihydro-2H-imidazol-2-one]	3050 nM	4690 nM	4650 nM	7720 nM	3080 nM	2170 nM	7950 nM	3020 nM
CCc1cccc2cccc(N3CCc4c(nc(OCC5(CN(C)C)CC5)nc4N(C)CC4CC(F)C4)C3)c12 (stereo not drawn) [Example 560, 2-((1-((dimethylamino)methyl)cyclopropyl)methoxy)-7-(8-ethylnaphthalen-1-yl)-N-((3-fluorocyclobutyl)methyl)-N-methyl-5,6,7,8-tetrahydropyrido[3,4-d]pyrimidin-4-amine]	6020 nM	6870 nM	5460 nM	7920 nM	18400 nM	17600 nM	24800 nM	3730 nM
CCc1cccc2cccc(N3CCc4c(nc(OCC5(CN(C)C)CC5)nc4N4CCN(c5ccc(=O)[nH]n5)CC4)C3)c12 [Example 552, 6-(4-(2-((1-((dimethylamino)methyl)cyclopropyl)methoxy)-7-(8-ethylnaphthalen-1-yl)-5,6,7,8-tetrahydropyrido[3,4-d]pyrimidin-4-yl)piperazin-1-yl)pyridazin-3(2H)-one]	50400 nM	51400 nM	26100 nM	51000 nM	> 100000 nM	22900 nM	18400 nM	5640 nM
CCc1cccc2cccc(N3CCc4c(nc(OCC5(CN(C)C)CC5)nc4NCCc4cc(Br)no4)C3)c12 [Example 565, N-(2-(3-bromoisoxazol-5-yl)ethyl)-2-((1-((dimethylamino)methyl)cyclopropyl)methoxy)-7-(8-ethylnaphthalen-1-yl)-5,6,7,8-tetrahydropyrido[3,4-d]pyrimidin-4-amine]	13000 nM	12200 nM	8620 nM	12900 nM	18900 nM	34400 nM	34300 nM	6620 nM
CCc1cccc2cccc(N3CCc4c(nc(OCC5(CN(C)C)CC5)nc4N4CCn5nnc(CO)c5C4)C3)c12 [Example 517, (5-(2-((1-((dimethylamino)methyl)cyclopropyl)methoxy)-7-(8-ethylnaphthalen-1-yl)-5,6,7,8-tetrahydropyrido[3,4-d]pyrimidin-4-yl)-4,5,6,7-tetrahydro-[1,2,3]triazolo[1,5-a]pyrazin-3-yl)methanol]	9330 nM	7190 nM	4470 nM	6620 nM	15300 nM	11500 nM	1260 nM	3100 nM
CCc1cccc2cccc(N3CCc4c(nc(OCC5(CN(C)C)CC5)nc4NCc4nc(C5CC5)n[nH]4)C3)c12 [Example 675, N-((3-cyclopropyl-1H-1,2,4-triazol-5-yl)methyl)-2-((1-((dimethylamino)methyl)cyclopropyl)methoxy)-7-(8-ethylnaphthalen-1-yl)-5,6,7,8-tetrahydropyrido[3,4-d]pyrimidin-4-amine]	16900 nM	17300 nM	8480 nM	16600 nM	15300 nM	25300 nM	6300 nM	3240 nM
